# Experimental data taken from patent US11446312B2, “Compounds that modulate von Willebrand factor levels and their use in the treatment of blood disorders” (SOCIETE DES PRODUITS NESTLE S.A., priority 2018, dated 2022).
# Tested on: vWF
# Assay: Cultured Human Endothelial Cell vWF Expression Assay
# Type: cell-based
# Conditions: human iPSC-derived endothelial cells, 24h treatment, immunofluorescence intensity, vs DMSO control
# Method: Human induced-pluripotent stem cell derived endothelial cells and accompanying growth media were purchased from Cellular Dynamics International. ECs were cultured according to the manufacturer's protocol (Cellular Dynamics International). ECs were plated at a density of 10′000-15′000 cells/cm^2 in culture vessels which have been coated with fibronectin (Invitrogen) and maintained in a low oxygen incubator (37° C., 5% CO2, 5% O2). The EC maintenance media was exchanged every other day and comprised of VascuLife Basal medium +VascuLife VEGF medium complete kit (Lifeline Cell Technologies). For all experiments ECs of passage 0 or 1 were used. The Celastrol used was a synthetic organic chemical manufactured in the United States and purchased from Novus (catalog reference number NBP2-29362). vWF primary antibody was obtained from Abcam (ab6994), tubulin primary antibody was obtained from Abcam (ab7291), and the secondary antibodies were Alexa fluor (anti-mouse and anti-rabbit) obtained from Thermo Fisher Scientific.
# Endothelial cells were plated into 96-well glass-bottom plates at a density of 10,000 cells per well. […] Quantification of the fluorescence intensity (which is indicative of protein levels) was performed using the MetaXpress software. […]
# The figure (FIG. 1) depicts the quantification of the data for human endothelial cells treated with celastrol as described above. […]
smiles,measurement,setting,value
"CC1=C(O)C(=O)C=C2C1=CC=C1[C@@]2(C)CC[C@@]2(C)[C@@H]3C[C@](C)(C(=O)O)CC[C@]3(C)CC[C@]12C [Celastrol, 10-Hydroxy-2,4a,6a,9,12b,14a-hexamethyl-11-oxo-1,2,3,4,4a,5,6,6a,11,12b,13,14,14a,14b-tetradecahydro-picene-2-carboxylic acid]",vWF protein expression (normalized by the expression of tubulin),1 μM celastrol,significantly (***p<0.001) reduces vWF protein expression
same,vWF protein expression (normalized by the expression of tubulin),10 μM celastrol,significantly (***p<0.001) reduces vWF protein expression
